For assay [1], the system named is HAS2 gene. In words: Quantitative RT-PCR of HAS2 mRNA in keratinocyte cell line HaCaT. Type of assay: cell-based, human. Particulars: HaCaT cells; for increase in HAS2 transcription: 1 μM compound K. The protocol:
(§1) The cells were cultured in Dulbecco's modified Eagle's medium (DMEM) supplemented with 10% fetal bovine serum (HyClone), sodium bicarbonate (3.6 g/l) and antibiotics of streptomycin (100 μg/ml) and penicillin (100 U/ml) (Life Technologies, Inc.) at 37° C. in a humidified atmosphere containing 5% CO2 and 95% air. The culture was changed with fresh medium every 3 days. On reaching the maximum cell-density, the cells were recultured at a 1:5 division ratio. 48 hours before treatment with compound K, the cells were seeded into a tissue culture flask at 1×10^5 cells per 75 cm^2 and cultured in the medium with 10% fetal bovine serum for 24 hours. Subsequently, the cells were cultured in the serum-free medium for another 24 hours and then in fresh serum-free medium supplemented with 1 to 5 μM of compound K for 3, 6, 12, 24 or 48 hours. As a control, the cells were cultured in the medium supplemented with 0.01% vehicle (dimethylsulfoxide, DMSO). In the control, no effect of DMSO on cell growth and differentiation was observed.
(§2) HaCaT cells and HDF cells were washed twice with phosphate buffered saline (PBS) (Life Technologies, Inc.), and total cellular RNA was isolated with TRizol® reagent (GibcoBRL Life Technologies, Grand Island, N.Y.) according to manufacturer's instructions. RNA concentration was measured by spectrophotometry and RNA integrity was checked by agarose gel electrophoresis.
Quantitated total RNA was reverse transcribed, then RT-PCR was performed using HAS1-, HAS2- and HAS3-specific primers. In brief, 4 μg of total RNA was reverse transcribed in 25 μl of reaction mixture containing 2.5 U/μl Superscript II reverse transcriptase (Invitrogen, Carlsbad, Calif.), 1 U/μg RNase inhibitor, 5 mM MgCl2, 50 mM KCl, 10 mM Tris-HCl (pH8.3), 2.5 μM oligo(dT) primers and 1 mM dNTPs. The reaction mixture was gently incubated at 42° C. for 60 min, to be subjected to reverse transcription. Then, the reverse transcriptase was inactivated by heating at 85° C. for 5 min.
Subsequently, 5 μl of the resulting mixture was subjected to PCR. […]

In the next assay the test system is hairless mouse skin. Description: Production of hyaluronic acid in hairless mouse skin, bHABP immunohistochemical staining and image analysis. Type of assay: in vivo. The conditions noted are these: hairless mouse back skin, 1%(w/v) compound K solution topically. How it is done:
Male albino Hos:hr-1 mice, 30 weeks old, were purchased from Biogenomics (Seoul, Korea) and had unrestricted access to standard rodent chow and water. After one week of acclimation under controlled conditions of 24±2° C. and 55±10% humidity, 200 μl of 1%(w/v) compound K solution in the vehicle (1,3-BG:ethanol-7:3) was topically applied onto the back of the mouse two times for 2 days. 24 hours after the final administration, each skin sample was collected.
Hyaluronan staining was carried out with bHABP(Seikagaku). Each skin sample was fixed with 2% formaldehyde and 0.5% glutaraldehyde in PBS, embedded and sectioned. After deparaffinization, sections were incubated in 0.3% H2O2 in methanol at room temperature for 30 min, washed with PBS, then blocked in 1% bovine serum albumin. Subsequently the sections were incubated in […] bHABP in PBS at 4° C. then, after washing, incubated with streptoavidin-peroxidase, diluted to 1/300 in PBS at room temperature, for 30 min. […]
Stained slides were quantitatively characterized via digital image analysis using ImagePro-Plus (Media Cybernetics, Silver Spring, Md.). […] Staining score is determined by the following formula 1: Intensity of stain X (total stained area/total area) Equation 1
One-way ANOVA with post-hog Duncan test was performed using SigmaStat (SPSS Inc., Chicago, Ill.). Data were expressed as the mean±SEM. […]

Another assay has as its system HDF cells. In words: Hyaluronic acid production in cultured HDF cells, bHABP immunocytochemical staining. Type of assay: cell-based, human. The conditions noted are these: 1 μM compound K, immunocytochemical method. The protocol:
(§3) HaCaT and HDF cells were washed with PBS then fixed in a fixative with 2% paraformaldehyde(v/v) and 0.5% glutaraldehyde(v/v) at room temperature for 20 min. After fixation, the cells were washed three times for 2 min each with 0.1 M sodium phosphate buffer (pH7.4), then blocked in 1% bovine serum albumin (w/v) containing 0.1% Triton X-100 (v/v) in the same buffer at room temperature for 30 min. Hyaluronan staining was carried out with a specific probe of biotinylated hyaluronan binding protein (bHABP) (Seikagaku, Tokyo, Japan). The bHABP probe, diluted to 5 μg/ml in 3% bovine serum albumin (w/v), was added to the fixed cells and was incubated overnight at 4° C. After washing, avidin-fluorescein isothocyanate (FITC) was added.
(§4) HaCaT cells (FIG. 3a, FIG. 3b) and HDF cells (FIG. 3c, FIG. 3d) were cultured in the presence of 1 μM compound K (FIG. 3b, FIG. 3d) or in the absence of compound K (FIG. 3a, FIG. 3c).

For a further assay, the system named is HaCaT cells. In words: Hyaluronic acid production in cultured HaCaT cells, bHABP immunocytochemical staining. Type of assay: cell-based, human. Particulars: 1 μM compound K, immunocytochemical method. How it is done: as §3, §4
Another assay relates to HAS3. Description: Quantitative RT-PCR of HAS3 mRNA in HaCaT cells. Type of assay: cell-based, human. The conditions noted are these: 1 μM compound K, 24 or 48 hours. How it is done:
as §1, with “As a control, the cells were cultured in the medium supplemented with 0.01% vehicle (dimethylsulfoxide, DMSO). In the control, no effect of DMSO on cell growth and differentiation was observed.” left out
as §2
(§5) Quantitated total RNA was reverse transcribed, then RT-PCR was performed using HAS1-, HAS2- and HAS3-specific primers. […]

The test system of another assay is HAS1. Description: Quantitative RT-PCR of HAS1 mRNA in HaCaT cells. Type of assay: cell-based, human. The conditions noted are these: 1 μM compound K, 24 or 48 hours. The protocol:
as §1, with “As a control, the cells were cultured in the medium supplemented with 0.01% vehicle (dimethylsulfoxide, DMSO). In the control, no effect of DMSO on cell growth and differentiation was observed.” left out
as §2, §5

The test system of a further assay is human skin. Description: Clinical trial of skin-care efficacy of emulsion containing compound K. Type of assay: in vivo. The protocol:
In order to evaluate the efficacy of the cosmetic composition containing compound K, a clinical trial was conducted with forty-nine (49) healthy Korean females aged from 31 to 37 years and having facial wrinkle and fine wrinkle. They were divided into three groups by skin type: normal skin, dry skin and combination skin and used two kinds of oily-water emulsions containing 0.03% compound K or none. Before the trial, all the volunteers were evaluated for facial wrinkle and fine wrinkle with a global photodamage score. All the scores were obtained before use and 4, 8 and 12 weeks after use. Each volunteer applied test samples onto the facial skin twice per day (morning and evening) at their homes, and particularly onto the wrinkles of the eye rims. Skin-care efficacies such as facial wrinkle, fine wrinkle, hydration, elasticity, smoothness, roughness and brightness were evaluated by the volunteers and skin expert inspectors. Difference before and after using topical samples and improvement were determined by photometry evaluation with Camscope® (model DCS-105) and by image analysis of silicon replica with Skin-Visiometer SV 600 (Courage & Khazaka, Germany).

Assay [2] deals with HAS2 gene. In words: Quantitative RT-PCR of HAS2 mRNA in fibroblast cell line HDF. The conditions noted are these: HDF cells, treatment with compound K for 24 hours, in comparison with no treatment. Type of assay: cell-based, human. How it is done: as §1, with “As a control, the cells were cultured in the medium supplemented with 0.01% vehicle (dimethylsulfoxide, DMSO). In the control, no effect of DMSO on cell growth and differentiation was observed.” left out
as §2, §5

The mark [3] stands for this setting: emulsion with 0.03% compound K, after 8 weeks of use.

SMILES strings stand for the structures.

Turning to `CC(C)=CCC[C@](C)(OCC1OC(CO)C(O)C(O)C1O)C1CC[C@]2(C)C1C(O)CC1C3(C)CCC(O)C(C)(C)C3CCC12C` (stereo partly drawn) [compound K, 20-O-β-D-glucopyranosyl-20(S)-protopanaxadiol], the “increase in HAS2 transcription” value in the assay on HAS2 gene [1] (24 hours incubation) was “about 3 times”. Besides, in the assay with HAS2 gene [1] (48 hours incubation), the “increase in HAS2 transcription” value is listed as “about 5 times”. Further, the “increase in HAS2 gene expression (HAS2 mRNA) versus control” value in the assay with HAS2 gene [1] (treatment with compound K for 24 hours, in comparison with no treatment) is given as 3 times. Moreover, the “hyaluronic acid in skin (immunohistochemical staining)” value in the assay with hairless mouse skin was “significantly increased”. Moreover, in the assay with HDF cells, the “production of hyaluronic acid in cultured cells” value is reported as “increased production of hyaluronic acid was confirmed”. The “production of hyaluronic acid in cultured cells” value with HaCaT cells is reported as “increased production of hyaluronic acid was confirmed”. Besides, the “effect on HAS3 mRNA level” value in the assay on HAS3 is listed as “did not influence”. Moreover, the “effect on HAS1 mRNA level” value in the assay with HAS1 is recorded as “did not influence”. Moreover, in the assay with human skin (compound K-containing topical composition applied onto the human skin), the “wrinkle, hydration, elasticity, smoothness and brightness of human skin” value is given as “improved”. Also, in the assay on human skin (emulsion with 0.03% compound K), the “volunteers answering improvement in skin brightness” value is 68%, the “volunteers answering improvement in skin elasticity” value is reported as 68%, the “volunteers answering improvement in skin roughness” value is recorded as 94% and the “volunteers answering improvement in skin smoothness” value worked out at 92%. In addition, in the assay with human skin (emulsion with 0.03% compound K), the “volunteers answering increase in skin moisturizing capacity” value amounted to 88%. In addition, the “facial wrinkle and fine wrinkle, global photodamage score by skin expert inspectors” value with human skin (emulsion with 0.03% compound K twice per day on facial skin, 12 weeks of use versus initial values and control emulsion) was “statistically significant decrease”. Besides, in the assay with human skin (setting [3]), the “total wrinkle in skin replica analysis” value is given as “decreased statistically significantly”; the “volunteers giving positive and affirmative estimate” value is 76%. For the same molecule, the “volunteers giving positive and affirmative estimate” value in the assay with human skin (emulsion with 0.03% compound K, after 12 weeks of use) is listed as 92%. The “increase in HAS2 gene expression (HAS2 mRNA) versus control” value with HAS2 gene [2] was 2.5 times.
